Results reported in patent EP0348560A1, “Oral composition” (LION CORPORATION, priority 1988, dated 1990).

Test system: Streptococcus mutans (strain 6715)
Assay: Incubation Adhesion Method: inhibition of dental plaque formation
Assay type: cell-based
Settings: for Synergistic effect: class by inhibiting rate; for formation of dental plaque: combined with α-bisabolol, conclusion in words from Table 1
Procedure: α-Bisabolol, menthol, eugenol, 3-octanol, methyl salicylate, carvone and cineol are used as samples to evaluate their effects on inhibiting the formation of dental plaque by Incubation Adhesion Method.
Incubation Adhesion Method
A predetermined amount (0, 4 or 8 µg/mℓ) of α-bisabolol and 125 µg/mℓ of menthol, eugenol, 3-octanol, methyl salicylate, carvone or cineol were added to a BHI (brain heart infusion) medium containing 1% of sucrose. Then, Streptococcus mutans (strain 6715) was inoculated to the medium and incubated at 37°C for 16 hours under an anaerobic condition (N₂: CO₂ :H₂ = 80:10:10). After incubation, the resulting dental plaque was washed twice with water and dispersed in the same amount of 0.5-N NaOH solution. To determine the amount of dental plaque formed, the suspension of dental plaque was examined for absorbance (turbidity) at a wavelength of 550 nm.
Inhiviting rate of dental plaque formation (%) [formula] A : Absorbance (O.D. 550nm) of the control B : Absorbance (O.D. 550nm) of the sample

[1] = 125 µg/mℓ sample alone, content of α-bisabolol 0 µg/mℓ, BHI medium with 1% sucrose, 37°C, 16 hours, anaerobic
[2] = 125 µg/mℓ sample combined with α-bisabolol 4 µg/mℓ, BHI medium with 1% sucrose, 37°C, 16 hours, anaerobic
[3] = 125 µg/mℓ sample combined with α-bisabolol 4 µg/mℓ
[4] = 125 µg/mℓ sample combined with α-bisabolol 8 µg/mℓ, BHI medium with 1% sucrose, 37°C, 16 hours, anaerobic
[5] = 125 µg/mℓ sample combined with α-bisabolol 8 µg/mℓ
[6] = α-bisabolol 4 µg/mℓ alone (line 'Control', no sample added)
[7] = α-bisabolol 8 µg/mℓ alone (line 'Control', no sample added)

Compound	Amount of dental plaque formation (O.D., 550nm) [1] [O.D.]	Inhibiting rate of dental plaque formation (%) [1] [%]	Amount of dental plaque formation (O.D., 550nm) [2] [O.D.]	Inhibiting rate of dental plaque formation (%) [2] [%]	Synergistic effect [3]	Amount of dental plaque formation (O.D., 550nm) [4] [O.D.]	Inhibiting rate of dental plaque formation (%) [4] [%]	Synergistic effect [5]	Amount of dental plaque formation (O.D., 550nm) [6] [O.D.]	Inhibiting rate of dental plaque formation (%) [6] [%]	Amount of dental plaque formation (O.D., 550nm) [7] [O.D.]	Inhibiting rate of dental plaque formation (%) [7] [%]	formation of dental plaque
C=C(C)C1CC=C(C)C(=O)C1 (stereo not shown) [Carvone, carvone, reference compound]	0.62	0	0.60	3.2	× (Inhibiting rate is less than 20%)	0.42	32.3	Δ (Inhibiting rate is not less than 20%, less than 50 %)					
α-bisabolol									0.61	1.6	0.60	3.2	
CC1CCC(C(C)C)C(O)C1 (stereo not shown) [Menthol, menthol]	0.60	3.2	0.01	98.4	ⓞ (Inhibiting rate is not less than 80%)	0.01	98.4	ⓞ (Inhibiting rate is not less than 80%)					synergistically suppressed
C=CCc1ccc(O)c(OC)c1 [Eugenol, eugenol]	0.62	0	0.60	3.2	× (Inhibiting rate is less than 20%)	0.02	96.8	ⓞ (Inhibiting rate is not less than 80%)					synergistically suppressed
COC(=O)c1ccccc1O [Methyl salicylate, methyl salicylate, reference compound]	0.61	1.6	0.61	1.6	× (Inhibiting rate is less than 20%)	0.39	37.1	Δ (Inhibiting rate is not less than 20%, less than 50 %)					
CCCCCC(O)CC (stereo not shown) [3-Octanol, 3-octanol]	0.59	4.8	0.58	6.5	× (Inhibiting rate is less than 20%)	0.06	90.3	ⓞ (Inhibiting rate is not less than 80%)					synergistically suppressed
CC12CCC(CC1)C(C)(C)O2 [Cineol, cineol, reference compound]	0.62	0	0.59	4.8	× (Inhibiting rate is less than 20%)	0.53	14.5	× (Inhibiting rate is less than 20%)					
